Legend:
Agl97 (maltase) [1] = target: T1, Agl97 (maltase) (Hordeum vulgare, UniProt Q9LLY2); experiment: inhibition of pNPG hydrolysis, absorbance […] nm; type: biochemical; details: 0.01-100 µM LAB; 0.6 mM pNPG, 50 mM sodium acetate pH 4.5, 5 mM CaCl2, 37 °C
T1 construct: purified recombinant
T1 sequence (Q9LLY2 24-879): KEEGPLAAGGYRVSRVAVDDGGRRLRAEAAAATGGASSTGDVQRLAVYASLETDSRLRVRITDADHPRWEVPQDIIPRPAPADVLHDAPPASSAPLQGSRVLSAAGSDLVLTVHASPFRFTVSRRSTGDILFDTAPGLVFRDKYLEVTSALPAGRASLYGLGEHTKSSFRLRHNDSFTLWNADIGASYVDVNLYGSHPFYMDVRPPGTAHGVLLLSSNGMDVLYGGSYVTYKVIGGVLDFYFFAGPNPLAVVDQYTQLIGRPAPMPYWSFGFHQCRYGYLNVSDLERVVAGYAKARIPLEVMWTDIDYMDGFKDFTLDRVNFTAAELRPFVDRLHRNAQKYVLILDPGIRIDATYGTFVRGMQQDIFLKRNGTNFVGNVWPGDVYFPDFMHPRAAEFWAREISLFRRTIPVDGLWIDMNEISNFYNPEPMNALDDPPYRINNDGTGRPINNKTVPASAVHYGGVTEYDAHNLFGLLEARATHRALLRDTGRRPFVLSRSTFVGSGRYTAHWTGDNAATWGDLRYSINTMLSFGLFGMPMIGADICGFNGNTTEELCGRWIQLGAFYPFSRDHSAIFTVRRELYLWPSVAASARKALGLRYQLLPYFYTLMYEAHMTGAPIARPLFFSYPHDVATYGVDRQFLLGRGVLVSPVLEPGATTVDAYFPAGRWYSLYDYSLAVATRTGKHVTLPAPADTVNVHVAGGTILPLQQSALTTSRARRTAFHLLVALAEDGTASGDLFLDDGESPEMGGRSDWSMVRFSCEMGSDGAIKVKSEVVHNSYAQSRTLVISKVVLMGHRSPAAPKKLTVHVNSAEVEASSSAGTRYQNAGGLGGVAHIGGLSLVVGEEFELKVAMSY

[2] = target: AXAH activity of barley endosperm (arabinoxylan arabinofuranohydrolase, endogenous) (barley (endogenous in endosperm of cv NFC Tipple)); experiment: SEC; endosperm extracts of seedlings at 4-10 dpi on a Sephacryl size exclusion column in 50 mM Tris/HCl pH 7.5, 150 mM NaCl; fractions assayed for enzyme activity; size estimated against protein standards
Agl97 (maltase) [3] = target: T1, Agl97 (maltase); experiment: 4-nitrophenol release, absorbance […] nm; type: biochemical; details: 0.6 mM, 50 mM sodium acetate pH 4.5, 5 mM CaCl2, 37 °C

OC[C@@H]1NC[C@H](O)[C@H]1O [LAB, 1,4-dideoxy-1,4-imino-L-arabinitol]
% inhibition (Agl97 (maltase) [1]): LAB inhibited the activity of purified recombinant maltase (Agl97)

AXAH activity of barley endosperm (arabinoxylan arabinofuranohydrolase, endogenous) (enzyme)
stoichiometry N [2]: 2

O=[N+]([O-])c1ccc(O[C@H]2O[C@H](CO)[C@@H](O)[C@H](O)[C@H]2O)cc1 [4-nitrophenyl α-D-glucopyranoside]
4-nitrophenol release, absorbance 405 nm (Agl97 (maltase) [3]): Purified recombinant Agl97 was assayed with pNPG
